The subject of one data set is acute inflammatory pain. Nature of the data set: Formalin model of acute inflammatory pain in mice, isobolographic analysis. The data set is classed as in vivo, ICR male mice. The following applies: Mus musculus, ip; individual drug, intraperitoneal, 20 minutes before formalin, phase 2 (15 to 45 minutes); read-out: DE30 (dose causing 30% anti-nociceptive effect).
The conditions of data set [1]: cited from earlier work.
A further data set deals with COX-1 and COX-2. The following applies: in vitro; cited from earlier work.

Experimental for acute inflammatory pain: The duration of the experiment was always as short as possible, considering that the number of animals used was the minimum necessary. […] Transparent cylinders of 20 cm diameter X 40 cm high were used, with mirrors. At the start of the experiment, the mice were placed in cylinders for a period of 60 minutes to settle. After this time, the mice were removed for the administration of 20 μL formalin (3% formaldehyde solution). Immediately after formalin administration, the mouse was returned to the cylinder for observing the characteristic behaviour, which consists in counting the number of licks of the injected paw during 5-minute periods to a total time of 45 minutes. […] Groups of animals were used with an average n ≥ 6. Physiological saline solution (0.9) was administered intraperitoneally as a control of each experimental set. […] The percentage of anti-nociception was plotted according to the dose of both analgesics individually or in combination. The data of the dose-response curve were analysed by a variance analysis (ANOVA), followed by a Tukey test. […] The doses used for this assay correspond to those reported as effective in humans, considering that an average human weighs 60 kg.

As to `Cc1cnc(NC(=O)C2=C(O)c3ccccc3S(=O)(=O)N2C)s1` [MXC, 4-hydroxy-2-methyl-N-(5-methyl-2-thiazolyl)-2H-1,2-benzothiazine-3-carboxamide-1,1-dioxide], the ED30 in the data set on acute inflammatory pain was determined as 0.12 ± 0.004 mg/kg. Moreover, the “percentage of native drug in the faeces” value in data set [1] (faeces) is reported as 1.6%. Also, the “administered dose excreted in the urine” value in data set [1] (mostly as metabolites) is 43%. In addition, in data set [1] (oral administration), the absolute bio-availability is listed as 90%. Moreover, in data set [1] (plasma), the Tmax is 5 to 6 h. Also, in data set [1] (presence of food), the “increase of the maximum plasma concentrations by food” value is given as 22%. The “plasma concentrations observed in synovial fluid” value in data set [1] (synovial fluid) is recorded as 40-50%. Also, in data set [1] (urine), the “percentage of native drug in the urine” value is 0.2%.
For `CC(=O)Oc1ccccc1C(=O)O` [aspirin, acetylsalicylic acid], the “ratio Cl50COX-2/Cl50COX-1 (inhibits more the constitutive COX-1 than the COX-2)” value in the data set on COX-1 and COX-2 is on record as 166 times.
